# According to article PMC4603696, “Discovery and characterization of novel small-molecule inhibitors targeting nicotinamide phosphoribosyltransferase” (Scientific Reports, 2015):
# Where two headings read alike, the source gives them in different places.
# What was measured:
# HepG2 cells [1] = test: Cell counting kit-8 (CCK-8) cell viability assay in HepG2; type: cell-based, human; conditions: HepG2, 48 hours treatment, read-out: CCK-8 assay in HepG2: IC50
# Protocol: (§1) Cellc ount ing k it-8 (CCK-8) assa y
# Cell vi ability was de termine d by ou r previ ous method9 usi ng the Cell Counting Kit-8 (CCK -8, Dojindo, Ja pa n). In hu man he pa tocellu lar carcinom a cell line HepG 2, cells were seede d in 96-well plate and starve d for ove r 12 h with se rum-free DMEM at 60~ 70% conf lue nc y, the n trea ted wit h com pounds or ve hicle for 24 h to 72 h accor ding to expe riment requi rement s. […]
# (§2) 10 μl CCK-8 sol ution was adde d to the cul ture medium and inc ub ated at 37 °C for 1 h. Th e absor banc e at 450 nm (A450) was de tected by a pl ate reade r. Each e xperi ment w as carr ied out i n t riplic ate i n thr ee r eplic ate w ells.
# HepG2 cells [2] = test: Sulforhodamine B protein staining (SRB) assay in HepG2; type: cell-based, human; conditions: Homo sapiens
# Protocol: (§3) Sulfor hod am ine B p rotei n st ai ning (SRB) assay
# (§4) Cell pr oliferat ion was eva lua ted by sul for hod amine B pr ot ein st aini ng (SRB) assa y10-12.
# (§5) Briefly, cel ls were se ede d int o 96-well pl ates, cul tur ed overni ght , and trea ted with correspond ing com poun ds for 72 h. Cells were the n fixe d with 10% trichl or oa cetic aci d and st ained with sul for hoda mine B (Sigm a). Sul for hoda mine B in the cells was di sso lved in 10 mmol/L Tris-HCl and was measured at 515 nm usi ng a multiw ell spect ropho tometer (VERSA max, Mol ecul ar Devi ces, Sunnyva le, CA). The inhi bi tion rat e on cell pr olif eratio n was cal culated for each well as (A515contr ol cells-A 515tr eated cells)/A515contr ol cells×100 % (A515:
# (§6) OD va lue at 515 nm ). The averag e IC50 va lue s were de termine d by Logit method from at leas t t hr eei nde pe nde nt test s.
# A549 cells = test: SRB assay in A549; type: cell-based, human; conditions: Homo sapiens; A549, SRB, 10-fold concentration gradient; read-out: anti-proliferation IC50, initial screen
# Protocol: as §3, §4, §5, §6
# HCT116 cells = test: SRB assay in HCT116; type: cell-based; conditions: Homo sapiens, HCT-116; HCT116, SRB, 10-fold concentration gradient; read-out: anti-proliferation IC50, initial screen
# Protocol: as §3, §4, §5, §6
# Huh7-C cells = test: CCK-8 assay in stem-like human hepatoma cell line Huh7-C; type: cell-based; conditions: Huh7-C, treated 60 h, read-out: CCK-8 assay in Huh7-C: IC50
# Protocol: as §1
# Cell vi ability was de termine d by ou r previ ous method9 usi ng the Cell Counting Kit-8 (CCK -8, […]
# as §2
# NAMPT H191A mutant = target: T1, NAMPT H191A mutant (Homo sapiens, UniProt P43490, H191A); test: NAMPT activity assay, H191A mutant; type: biochemical; conditions: for IC50: same condition as wild-type, read-out: IC50 against H191A mutant
# T1 construct: His-tag; made in house; host or cells: E. coli BL21-CodonPlus (DE3)-RIL
# NAMPT A244S mutant = target: T2, NAMPT A244S mutant (Homo sapiens, UniProt P43490, A244S); test: NAMPT activity assay, A244S mutant; type: biochemical; conditions: for IC50: same condition as wild-type, read-out: IC50 against A244S mutant
# T2 construct: His-tag; made in house; host or cells: E. coli BL21-CodonPlus (DE3)-RIL
# NAMPT I309Y mutant = target: T3, NAMPT I309Y mutant (Homo sapiens, UniProt P43490, I309Y); test: NAMPT activity assay, I309Y mutant; type: biochemical; conditions: for IC50: same condition as wild-type, read-out: IC50 against I309Y mutant
# T3 construct: His-tag; made in house; host or cells: E. coli BL21-CodonPlus (DE3)-RIL
# NAMPT [3] = target: T4, NAMPT (Homo sapiens, UniProt P43490); test: Cellular thermal shift assay (CETSA / […]) in HepG2 cell lysate; type: binding; design: endogenous in cells; host or cells: HepG2; conditions: HepG2 cell lysate, 100 μM
# NAMPT [4] = target: T4, NAMPT; test: Cellular thermal shift assay (CETSA / […]) in intact HepG2 cells; type: cell-based; design: endogenous in cells; host or cells: HepG2; conditions: for CETSA target binding of NAMPT in intact cell: intact HepG2 cells, 10 μM, 3 h
# NAMPT [5] = target: T4, NAMPT; test: NAMPT activity assay by fluorescence of NMN derivative (HTS system), IC50 determination; type: biochemical; design: His-tag; made in house; host or cells: E. coli BL21-CodonPlus (DE3)-RIL
# NAD level of HepG2 cells = test: Cellular NAD level, spectrophotometric enzymatic cycling assay; type: cell-based, human; conditions: HepG2, even at 100 μM, 24 hours
# From the text: F0 was the average d fluo rescen ce of si x backgr ound control s, repres ent ing zero activ ity from a si mul ated enz ym e reaction wit h on ly NAMP T but no NAM and com pound; F100 % was the average d fluorescen ce of si x ref erence cont rols, repr ese nt ing 100% activ ity from int act enz ym e reaction w ithou t com pound p ert ur bation.
# Compounds with Activ ity% less tha n 40% were consi dered as inhi bi tor s and subj ect ed to a secondary screen inhi bition valida tion, in whi ch anot her backgr oun d cont rol (FC0), a si mul ated enz ym e reaction with NAMP Tand com pound but no NAM, was int roduced to elimina te the di rec t and /or ind irect inf lue nc e fro m compou nd. At thi s st age , the Activ ity% was cal culated accor ding t o e qua tion ( 2) :
# In the screeni ng, the si gna l-to- noi se (S/N) rat io was cal cul ated usi ng the equa tion: (Mean signal -Mean backgr oun d) / SD backgr oun d4. Coe fficient s of vari atio n (CV) were the ratio of SD to mean. The Z ’f act or w as de term ine d by e qua tion (3) 5:
# Z' −= (3)1−3(S Dhi ghsigna l+SDlowsigna l)
# Mean hi gh signa l Meanlow signa l
# Determ inat ion of IC50 for NAMPT inhi bitor s […]
# vari ous con cent ration s were adde d int o 96-well pl ate. The pl ate was inc uba ted at 37 °C for 5 min after addition of 16.5 μl react ion buf fer cont aini ng N AMP T. The enz ym e reactions were ini tiated by 4.5 μl NAM (1.1 1 μM) follow ing NMN measurem ent as de scri bed above . […]
# Cellul ar level of NAD was measured by spe ctrophot om etric enz ym atic cyc ling assa y, as de scri bed pr evi ousl y6-8. […]
# Cell vi ability was de termine d by ou r previ ous method9 usi ng the Cell Counting Kit-8 (CCK -8, Dojindo, Ja pa n). […] Th e absor banc e at 450 nm (A450) was de tected by a pl ate reade r. […]
# Briefly, cel ls were se ede d int o 96-well pl ates, cul tur ed overni ght , and trea ted with correspond ing com poun ds for 72 h. […] Sul for hoda mine B in the cells was di sso lved in 10 mmol/L Tris-HCl and was measured at 515 nm usi ng a multiw ell spect ropho tometer […]
# NAMPT [6] = target: T4, NAMPT; design: His-tag; made in house; host or cells: E. coli BL21-CodonPlus (DE3)-RIL; conditions: previous study of the authors ref 7; read-out: NAMPT inhibition activity IC50; cited from earlier work
# [7] = HepG2, 72 h, HepG2, second test, 2-fold concentration gradient, 72 hours, read-out: SRB assay in HepG2: IC50
# [8] = HepG2, HepG2, SRB, 10-fold concentration gradient, read-out: anti-proliferation IC50, initial screen
# [9] = recombinant human NAMPT, mean ± s.e., read-out: NAMPT IC50
# [10] = wild type, run beside the mutants, read-out: IC50 against wild-type NAMPT (mutagenesis study)
# T4 sequence (P43490 whole entry): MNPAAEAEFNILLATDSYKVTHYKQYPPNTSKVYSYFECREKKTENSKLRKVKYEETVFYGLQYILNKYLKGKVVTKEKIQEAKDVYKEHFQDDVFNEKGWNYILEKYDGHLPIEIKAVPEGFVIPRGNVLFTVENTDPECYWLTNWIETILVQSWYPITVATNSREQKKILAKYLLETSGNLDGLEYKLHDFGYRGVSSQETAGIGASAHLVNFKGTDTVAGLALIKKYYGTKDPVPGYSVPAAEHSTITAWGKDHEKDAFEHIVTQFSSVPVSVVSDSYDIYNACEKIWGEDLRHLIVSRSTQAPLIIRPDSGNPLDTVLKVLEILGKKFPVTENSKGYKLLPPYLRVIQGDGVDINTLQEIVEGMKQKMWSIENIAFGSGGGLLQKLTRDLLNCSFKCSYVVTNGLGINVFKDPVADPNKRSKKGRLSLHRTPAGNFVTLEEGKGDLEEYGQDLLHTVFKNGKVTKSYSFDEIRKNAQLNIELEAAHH
# T2 sequence (P43490 whole entry A244S): as the sequence (P43490 whole entry) above, with A244S counted along it
# T1 sequence (P43490 whole entry H191A): as the sequence (P43490 whole entry) above, with H191A counted along it
# T3 sequence (P43490 whole entry I309Y): as the sequence (P43490 whole entry) above, with I309Y counted along it
Compound,"IC50 (HepG2 cells [1]; Homo sapiens, HepG2, 48 h)",IC50 (HepG2 cells [2]; [7]),IC50 (HepG2 cells [2]; [8]),IC50 (A549 cells),IC50 (HCT116 cells),IC50 (Huh7-C cells),"change in IC50 versus wild-type NAMPT, H191A (NAMPT H191A mutant)",IC50 (NAMPT H191A mutant),"change in IC50/potency versus wild-type NAMPT, A244S (NAMPT A244S mutant)",IC50 (NAMPT A244S mutant),"change in IC50/potency versus wild-type NAMPT, I309Y (NAMPT I309Y mutant)",IC50 (NAMPT I309Y mutant),CETSA melting curve shift of NAMPT in cell lysate (NAMPT [3]),CETSA target binding of NAMPT in intact cell (NAMPT [4]),IC50 (NAMPT [5]; [9]),IC50 (NAMPT [5]; [10]),other results
CC(C)(C)OC(=O)N1CCN(S(=O)(=O)c2ccc(NC(=S)NCc3cccnc3)cc2)CC1 [MS1],326 ± 73.3 nM,~3000 nM,< 5000 nM,< 5000 nM,< 5000 nM,308 ± 32.2 nM,no change,25.3 ± 2.36 nM,2 to 3 fold,36.1 ± 4.11 nM,2 to 3 fold,58.3 ± 2.3 nM,obvious right shifts,directly bound with NAMPT,21.7 nM,24.6 ± 2.65 nM,"IC50 (HepG2 cells [1]): 326 nM; ITDRFCETSA of NAMPT in cell lysate versus intact cells (NAMPT [4]; 62 °C, lysate value relative to intact cells): approximately 100 fold"
O=S(=O)(c1ccc(NC(=S)NCc2cccnc2)cc1)N1CCN(Cc2ccc(C(F)(F)F)cc2)CC1 [MS34],615 ± 42.4 nM,~3000 nM,< 5000 nM,< 5000 nM,< 5000 nM,514 ± 83.3 nM,no change,25.2 ± 2.42 nM,2 to 3 fold,37.7 ± 1.9 nM,2 to 3 fold,57.6 ± 3.71 nM,obvious right shifts,directly bound with NAMPT,23.7 ± 7.8 nM,24.8 ± 1.87 nM,
"O=S(=O)(c1ccc(NC(=S)NCc2ccncc2)cc1)N1CCCCC1 [compound 733, reference compound]",,,,,,,,,,,,,,,,,effect on cellular NAD level (in words) (NAD level of HepG2 cells): did not show any effect; inhibition on NAMPT activity (in words) (NAMPT [5]): no inhibition
O=C(OC[C@H]1O[C@@H](OC(=O)c2cc(O)c(O)c(OC(=O)c3cc(O)c(O)c(O)c3)c2)[C@H](OC(=O)c2cc(O)c(O)c(OC(=O)c3cc(O)c(O)c(O)c3)c2)[C@@H](OC(=O)c2cc(O)c(O)c(OC(=O)c3cc(O)c(O)c(O)c3)c2)[C@@H]1OC(=O)c1cc(O)c(O)c(OC(=O)c2cc(O)c(O)c(O)c2)c1)c1cc(O)c(O)c(OC(=O)c2cc(O)c(O)c(O)c2)c1 [gallotannin],,,,,,,,,,,,,,,,,IC50 (NAMPT [6]): 1300 ± 100 nM
